These are literature values, as cited in patent publication US20240093147A1, “GLIA-LIKE CELLS DIFFERENATIATED FROM SOMATIC CELLS, PREPARATION METHOD THEREFOR, COCKTAIL COMPOSITION FOR PREPARING SAME, CELL THERAPEUTIC AGENT FOR PREVENTING OR TREATING NEUROLOGICAL DISORDERS, COMPRISING SAME, AND METHOD FOR PREVENTING AND TREATING NEUROLOGICAL DISORDERS BY ADMINISTERING SAME” (CELLAPEUTICS BIO, priority 2019, published 2024).

The IC50 is the concentration that inhibits the measured activity by half.

One data set relates to HDAC. The note with it: valproic acid, HDAC inhibitor.
The conditions of data set [1]: forskolin, cAMP agonist.

Consider `CCCC(CCC)C(=O)O` [Valproic Acid, valproic acid], for which the IC50 with HDAC was 2000 µM.
With `C=C[C@@]1(C)CC(=O)[C@]2(O)[C@@]3(C)[C@@H](O)CCC(C)(C)[C@@H]3[C@H](O)[C@H](OC(C)=O)[C@@]2(C)O1` [Forskolin, forskolin], the IC50 in data set [1] was 0.5 µM.
